Counter-ions that a name gives are not always drawn.
Row | Structure (SMILES) | melting point [°C]
1 | COc1cc(Br)cc(-c2ncc(CN(C)C)[nH]2)c1OC (as salt: hydrochloride) [Compound 16, 2-(5-Bromo-2,3-dimethoxyphenyl)-4(5)-[(N,N-dimethyl)aminomethyl]-imidazole dihydrochloride] | 194
2 | c1ccc(CC2CCN(Cc3cnc(-c4ccccc4)[nH]3)CC2)cc1 (as salt: hydrochloride) [Compound 25, 2-Phenyl-4(5)-[(4-benzyl-piperidin-1-yl)methyl]-imidazole dihydrochloride] | 234 to 236
3 | COc1ccc(Cl)cc1-c1ncc(CN2CCN(c3ccccc3OC)CC2)[nH]1 (as salt: hydrochloride) [Compound 43, 2-(5-Chloro-2-methoxyphenyl)-4(5)-[(4-(2-methoxyphenyl)-piperazin-1-yl)-methyl]-imidazole dihydrochloride] | 138 to 143
4 | Fc1ccc(N2CCN(Cc3cnc(-c4ccccc4)[nH]3)CC2)cc1 (as salt: hydrochloride) [Compound 56, 2-Phenyl-4(5)-[(4(4-fluorophenyl)-piperazin-1yl-)methyl]imidazole dihydrochloride] | 64 to 68
5 | Fc1ccnc(N2CCN(Cc3c[nH]c(-c4ccccc4)n3)CC2)n1 (as salt: hydrochloride) [Compound 58, 2-Phenyl-4(5)-[(4(4-fluoro-2-pyrimidinyl)-piperazin-1yl)-methyl]imidazole dihydrochloride] | 188 to 190
6 | Cc1ccc(Cl)cc1N1CCN(Cc2cnc(-c3ccccc3)[nH]2)CC1 (as salt: hydrochloride) [Compound 60, 2-Phenyl-4(5)-[(4(5-chloro-2-methylphenyl)-piperazin-1yl-)-methyl]imidazole dihydrochloride] | 142 to 145
7 | CC(c1cnc(-c2ccccc2)[nH]1)N1CCC(Cc2ccccc2)CC1 (stereo not drawn) (as salt: hydrochloride) [Compound 91, 2-phenyl-4(5)-[1-((4-benzyl-piperidin-1-yl)-ethan-1-yl)]imidazole dihydrochloride salt] | 169 to 171
8 | COc1ccccc1N1CCN(Cc2cnc(-c3ccc(F)cc3)[nH]2)CC1 [Compound 20, 2-(4-Fluorophenyl)-4(5)-[(4-(2-methoxyphenyl)-piperazin-1-yl)-methyl]-imidazole] | 95 to 97
9 | Clc1ccc(N2CCN(Cc3cnc(-c4ccccc4)[nH]3)CC2)cc1Cl [Compound 61, 2-Phenyl-4(5)-[(4(3,4-dichlorophenyl)-piperazin-1yl-)methyl]imidazole] | 179 to 181
10 | O=C(c1ccccc1)c1ncc(CN2CCN(c3ncccn3)CC2)[nH]1 [Compound 116, 2-(benzoyl)-4(5)-[(4-(2-pyrimidinyl)-piperazin-1-yl)-methyl]-imidazole] | 177 to 179
11 | c1ccc(-c2nc(-c3ccccc3)c(CN3CCN(c4ncccn4)CC3)[nH]2)cc1 [Compound 132, 2,5-diphenyl-4(5)-[(4-(2-pyrimidinyl)piperazin-1-yl)methyl]-imidazole] | 221 to 225

Results, then the compound that gave them:

Row | melting point [°C] | Structure (SMILES)
12 | 155 to 157 | c1ccc(CC2CCN(Cc3ncc(-c4ccccc4)[nH]3)CC2)cc1 (as salt: fumarate) [Compound 77, 4phenyl-2(5)-[(4-benzylpiperidin-1-yl)-methyl]imidazole]
13 | 242 to 243 | COc1ccc(Br)cc1-c1ncc(CN(C)C)[nH]1 (as salt: hydrochloride) [Compound 1, 2-(5-bromo-2-methoxyphenyl)-4(5)-[(N,N-dimethyl)aminomethyl]-imidazole dihydrochloride]
14 | 217 to 218 | COc1ccccc1N1CCN(Cc2cnc(-c3cccc(OC)c3OC)[nH]2)CC1 (as salt: hydrochloride) [Compound 21, 2-(2,3-Dimethoxyphenyl)-4(5)-[(4-(2-methoxyphenyl)-piperazin-1-yl)-methyl]-imidazole dihydrochloride]
15 | 198 to 199 | COc1ccccc1N1CCN(Cc2cnc(-c3cccc(Cl)c3)[nH]2)CC1 (as salt: hydrochloride) [Compound 22, 2-(3-Chlorophenyl)-4(5)-[(4-(2-methoxyphenyl)-piperazin-1-yl)-methyl]-imidazole dihydrochloride]
16 | 238 to 240 | c1ccc(-c2nc(CN3CCC(c4ccccc4)CC3)c[nH]2)cc1 (as salt: hydrochloride) [Compound 26, 2-Phenyl-4(5)-[(4-phenyl-piperidin-1-yl)-methyl]-imidazole dihydrochloride]
17 | 196 to 199 | COc1ccc(-c2ncc(CN3CCC(c4ccccc4)CC3)[nH]2)cc1 (as salt: hydrochloride) [Compound 47, 2-(4-Methoxyphenyl)-4(5)-[(4-phenyl-piperidin-1-yl)-methyl]-imidazole dihydrochloride]
18 | 114 to 117 | COc1cccc(-c2ncc(CN3CCC(c4ccccc4)CC3)[nH]2)c1 (as salt: hydrochloride) [Compound 50, 2-(3-Methoxyphenyl)-4(5)[(4-phenyl-piperidin-1-yl)-methyl]-imidazole dihydrochloride]
19 | 61 to 64 | CCc1ccc(OC)c(-c2ncc(CN3CCN(c4ccccc4OC)CC3)[nH]2)c1 (as salt: hydrochloride) [Compound 55, 2-(5-Ethyl-2-methoxyphenyl-4(5)-[(4-(2-methoxyphenyl)-piperazin-1-yl)-methyl]-imidazoledihydrochloride]
20 | 196 to 199 | Ic1nc(-c2ccccc2)[nH]c1CN1CCN(c2ncccn2)CC1 (as salt: hydroiodid) [Compound 90, 2-phenyl-5-iodo-4(5)-[(4-(2-pyrimidinyl)piperazin-1-yl)methyl]-imidazole hydroiodide salt]
21 | 142 to 144 | Fc1ccccc1-c1nc(CN2CCC(c3ccccc3)CC2)c[nH]1 (as salt: maleate) [Compound 52, 2-(2-Fluorophenyl)-4(5)[(4-phenyl-piperidin-1-yl)-methyl]-imidazole dimaleate]
22 | 105 to 107 | COc1ccccc1N1CCN(Cc2cnc(-c3ccccc3)[nH]2)CC1 [Compound 19, 2-phenyl-4(5)-[(4-(2-methoxyphenyl)-piperazin-1-yl)-methyl]imidazole]
23 | 81 to 83 | c1ccc(CC2CCN(Cc3cnc(-c4cccc5ccccc45)[nH]3)CC2)cc1 [Compound 92, 2-(1-naphthyl)-4(5)-[(4-benzyl-piperidin-1-yl)-methyl]imidazole]
24 | 235 to 236 | O=C(/C=C/c1cnc(-c2ccccc2)[nH]1)N1CCN(c2ncccn2)CC1 [Compound 119, 2-phenyl-4(5)-[(4(2-pyrimidinyl)-piperazin-1-yl)-propen-1-oyl]-imidazole]
25 | 143 to 148 | O=C(CCc1cnc(-c2ccccc2)[nH]1)N1CCN(c2ncccn2)CC1 [Compound 122, 2-phenyl-4(5)-[(4-(2-pyrimidinyl)-piperazin-1-yl)-propan-1-oyl]-imidazole]
26 | 133 to 135 | c1ccc(-c2ncc(CCCN3CCN(c4ncccn4)CC3)[nH]2)cc1 [Compound 125, 2-phenyl-4(5)-[(4-(2-pyrimidinyl)-piperazin-1-yl)-propan-1-yl]-imidazole]
27 | 210 to 213 | c1cnc(N2CCN(Cc3cnc(C4CCCCC4)[nH]3)CC2)nc1 [Compound 128, 2-cyclohexyl-4(5)-[(4-(2-pyrimidinyl)-piperazin-1-yl)-methyl]-imidazole]
